From article PMC8698657, “Absorption and Transport Characteristics and Mechanisms of Carnosic Acid” (Biology, 2021)
Where “and” joins values, the source holds several entries; their conditions need not be identical. Equal entries are not always repeated. Where two headings read alike, the source gives them in different places.

Assays:
[1] = Body weight, organ weights and appearance of CA-fed mice; format: in vivo; settings: 50 mg/kg/daily oral gavage
Source text: (§1) The animal experiment protocol was approved by the Institutional Animal Care and Use Committee of Guangzhou Medical University (#GY2020-067, 30 July 2020). Male ICR mice aged 5–6 weeks were kept in a specific-pathogen-free environment with 12-h light/dark cycles. […] Both groups were allowed to eat and drink ad libitum. Four hours after the last gavage, the mice were anesthetized, and their eyeballs were removed for blood collection. They were sacrificed and immediately dissected in the supine position. Serum, major organs (heart, liver, lung, stomach, spleen, kidney, small intestine, cecum, and colon), and the contents of the stomach, small intestine, cecum, and colon were collected, weighed, and stored at −80 °C.

[2] = Tissue distribution of CA in mice by HPLC after oral gavage; format: in vivo; settings: 50 mg/kg/daily oral gavage 7 days, 4 h after last gavage
Source text: as §1
Tissue samples and the contents of the digestive tract were homogenized in ultrapure water at 55 Hz for 8 min. Tissue/content homogenate (1 mL) or serum (100 μL) was mixed with 1 mL of 50% methanol, and the mixture was vortexed for 2 min. The mixture was extracted with ethyl acetate three times (6, 3, and 3 mL of ethyl acetate) and vortexed again for 2 min. The sample was centrifuged at 5000 rpm/min at 4 °C for 15 min, and the upper organic phase was dried under vacuum. Then, it was dissolved in 5% phosphoric acid methanol solution and filtered through a 0.22 μm microporous membrane. Concentrations of CA in serum, tissue, and content samples were determined using HPLC. CA standard was added to all samples, and the recovery rate was calculated. The chromatographic conditions for HPLC analysis were as follows: C18 chromatographic column: 5 μm, 150 × 4.6 mm; column temperature: 25 °C; mobile phase: methanol/0.1% phosphoric acid solution at 85%/15%; flow rate: 1.0 mL/min; detection wavelength: 230 nm; injection volume: 10 μL.

[3] = system: Caco-2 cell monolayer; experiment: Effect of verapamil, PEG 400 and EDTA on trans-enterocyte transport of CA; format: in vitro ADME, human
Procedure: (§2) CA was dissolved in HBSS solution at 50, 75, and 100 μM. The HBSS solution containing CA combined with 0.5% Tween 80, 5 mmol/L EDTA or 5% PEG 400 was prepared. The cumulative migration (Qr), apparent permeability coefficient (Papp), and the Papp value of bi-direction transport of CA were calculated according to formulas.
(§3) The 0.5 mL HBSS solution containing CA (50, 75, and 100 μM) combined with 100 μmoL/L verapamil, 5% PEG 400, or 5 mmol/L EDTA was added to the AP side of the Transwell plate, and 1.5 mL HBSS solution was added to the BL side. The effect of verapamil, Tween 80, PEG 400, and EDTA on the trans-enterocyte of CA was investigated according to the method described above. The TEER value of each Transwell chamber was measured.
(§4) The cryopreserved Transwell samples were transferred to a 15 mL centrifuge tube, and any remaining liquid was fully washed using 1 mL of 50% methanol solution which was also transferred to the 15 mL centrifuge tube. The mixture was vortexed for 1 min, and 6 mL of ethyl acetate solution was added to the tube and vortexed for another 2 min. The mixture was centrifuged at 6000 rpm/min at 4 °C for 10 min. The supernatant was dried under vacuum, dissolved in 5% phosphoric acid methanol solution, and filtered through a 0.22 μm microporous membrane. The concentration of CA was determined by HPLC as described above.

[4] = as above; format: in vitro ADME, human; settings: human, read-out: Papp AP to BL; for Papp A→B at 50 μM / Papp A→B at 75 μM / Papp A→B at 100 μM: Average of 0.5-3.0 h
Procedure: as §2, §3, §4

[5] = Caco-2, CA 50 μM, + 5 mmoL/L EDTA
[6] = Caco-2, CA 75 μM, + 5 mmoL/L EDTA
[7] = Caco-2, CA 100 μM, + 5% PEG 400
[8] = Caco-2, CA 100 μM, + 5 mmoL/L EDTA
[9] = Caco-2, with verapamil 100 μmol/L, CA 50 μM, + 100 μmoL/L verapamil
[10] = Caco-2, with verapamil 100 μmol/L, CA 75 μM, + 100 μmoL/L verapamil
[11] = Caco-2, with verapamil 100 μmol/L, CA 100 μM, + 100 μmoL/L verapamil
[12] = Caco-2, with verapamil 100 μmoL/L, CA 75 μM, + 100 μmoL/L verapamil

CC(C)c1cc2c(c(O)c1O)[C@@]1(C(=O)O)CCCC(C)(C)[C@@H]1CC2 [CA, Carnosic acid]
adverse effects [1]: not associated with noticeable adverse effects
body weight and weights of liver and spleen, CA-fed vs control mice [1]: no significant difference
Body Weight ([1]; week 1): 33.2 ± 0.9 g
Body Weight ([1]; week 2): 34.8 ± 2.5 g
Body Weight ([1]; week 3): 37.1 ± 1.8 g
Body Weight ([1]; week 4): 38.9 ± 2.4 g
Body Weight ([1]; week 5): 41.2 ± 3.1 g
Concentration of CA in Cecal content [2]: 0.15 nmol/g or mL and 0.15 ± 0.00 nmol/g or mL
Concentration of CA in Cecum [2]: 2965.1 nmol/g or mL and 2965.10 ± 3.31 nmol/g or mL
Concentration of CA in Colon [2]: 179.4 nmol/g or mL and 179.43 ± 0.26 nmol/g or mL
Concentration of CA in Colonic content [2]: 74.54 nmol/g or mL and 74.54 ± 0.21 nmol/g or mL
Concentration of CA in Gastric content [2]: 1.08 nmol/g or mL and 1.08 ± 0.00 nmol/g or mL
Concentration of CA in Heart [2]: 0.75 ± 0.00 nmol/g or mL
Concentration of CA in Kidney [2]: 0.66 ± 0.02 nmol/g or mL
Concentration of CA in Liver [2]: 10.56 ± 0.01 nmol/g or mL
Concentration of CA in Lung [2]: 1.68 ± 0.00 nmol/g or mL
Concentration of CA in Serum [2]: 15.22 ± 0.02 nmol/g or mL
Concentration of CA in Small intestine [2]: 1.87 nmol/g or mL and 1.87 ± 0.00 nmol/g or mL
Concentration of CA in Small intestine content [2]: 13.93 nmol/g or mL and 13.93 ± 0.01 nmol/g or mL
Concentration of CA in Spleen [2]: 13.42 ± 0.01 nmol/g or mL
Concentration of CA in Stomach [2]: 35.98 ± 0.09 nmol/g or mL
concentration at 4 h ([2]; male, ICR, mouse, serum, read-out: CA detected in serum): 15.2 µM
increase of Papp (AP to BL) in the presence of EDTA vs control ([3]; 5 mmol/L EDTA): ~ 1.5 fold
active efflux / P-gp substrate status ([3]; from effect of verapamil and PEG 400 on Papp (AP to BL)): could be a substrate of P-gp
Papp A→B at 0.5 h, 50 μM ([4]; Caco-2, CA 50 μM, + 5% PEG 400): 3.76 ± 0.17 ×10⁻⁶ cm/s
Papp A→B at 0.5 h, 50 μM [4, 5]: 0.5 ± 0.01 ×10⁻⁶ cm/s
Papp A→B at 1 h, 50 μM ([4]; Caco-2, CA 50 μM, + 5% PEG 400): 3.96 ± 0.1 ×10⁻⁶ cm/s
Papp A→B at 1 h, 50 μM [4, 5]: 0.24 ± 0.08 ×10⁻⁶ cm/s
Papp A→B at 1.5 h, 50 μM ([4]; Caco-2, CA 50 μM, + 5% PEG 400): 2.35 ± 0.01 ×10⁻⁶ cm/s
Papp A→B at 1.5 h, 50 μM [4, 5]: 0.62 ± 0.02 ×10⁻⁶ cm/s
Papp A→B at 2 h, 50 μM ([4]; Caco-2, CA 50 μM, + 5% PEG 400): 1.86 ± 0.35 ×10⁻⁶ cm/s
Papp A→B at 2 h, 50 μM [4, 5]: 0.92 ×10⁻⁶ cm/s
Papp A→B at 2.5 h, 50 μM ([4]; Caco-2, CA 50 μM, + 5% PEG 400): 1.89 ± 0.04 ×10⁻⁶ cm/s
Papp A→B at 2.5 h, 50 μM [4, 5]: 0.95 ± 0.02 ×10⁻⁶ cm/s
Papp A→B at 3 h, 50 μM ([4]; Caco-2, CA 50 μM, + 5% PEG 400): 2.34 ± 0.01 ×10⁻⁶ cm/s
Papp A→B at 3 h, 50 μM [4, 5]: 1.49 ± 0.02 ×10⁻⁶ cm/s
Papp A→B at 50 μM ([4]; Caco-2, CA 50 μM, + 5% PEG 400): 2.69 ± 0.04 ×10⁻⁶ cm/s
Papp A→B at 50 μM [4, 5]: 0.79 ± 0.03 ×10⁻⁶ cm/s
Papp A→B at 0.5 h, 75 μM ([4]; Caco-2, CA 75 μM, + 5% PEG 400): 3.9 ± 0.1 ×10⁻⁶ cm/s
Papp A→B at 0.5 h, 75 μM [4, 6]: 0.92 ± 0.08 ×10⁻⁶ cm/s
Papp A→B at 1 h, 75 μM ([4]; Caco-2, CA 75 μM, + 5% PEG 400): 2.99 ± 0.09 ×10⁻⁶ cm/s
Papp A→B at 1 h, 75 μM [4, 6]: 1.9 ± 0.08 ×10⁻⁶ cm/s
Papp A→B at 1.5 h, 75 μM ([4]; Caco-2, CA 75 μM, + 5% PEG 400): 2.72 ± 0.46 ×10⁻⁶ cm/s
Papp A→B at 1.5 h, 75 μM [4, 6]: 1.94 ± 0.07 ×10⁻⁶ cm/s
Papp A→B at 2 h, 75 μM ([4]; Caco-2, CA 75 μM, + 5% PEG 400): 2.35 ± 0.1 ×10⁻⁶ cm/s
Papp A→B at 2 h, 75 μM [4, 6]: 2.08 ± 0.03 ×10⁻⁶ cm/s
Papp A→B at 2.5 h, 75 μM ([4]; Caco-2, CA 75 μM, + 5% PEG 400): 1.52 ± 0.06 ×10⁻⁶ cm/s
Papp A→B at 2.5 h, 75 μM [4, 6]: 1.28 ± 0.1 ×10⁻⁶ cm/s
Papp A→B at 3 h, 75 μM ([4]; Caco-2, CA 75 μM, + 5% PEG 400): 1.19 ± 0.06 ×10⁻⁶ cm/s
Papp A→B at 3 h, 75 μM [4, 6]: 0.57 ± 0.01 ×10⁻⁶ cm/s
Papp A→B at 75 μM ([4]; Caco-2, CA 75 μM, + 5% PEG 400): 1.45 ± 0.08 ×10⁻⁶ cm/s
Papp A→B at 75 μM [4, 6]: 1.45 ± 0.05 ×10⁻⁶ cm/s
Papp A→B at 0.5 h, 100 μM [4, 7]: 3.21 ± 0.47 ×10⁻⁶ cm/s
Papp A→B at 0.5 h, 100 μM [4, 8]: 0.38 ×10⁻⁶ cm/s
Papp A→B at 1 h, 100 μM [4, 7]: 3.59 ± 0.1 ×10⁻⁶ cm/s
Papp A→B at 1 h, 100 μM [4, 8]: 2.25 ± 0.09 ×10⁻⁶ cm/s
Papp A→B at 1.5 h, 100 μM [4, 7]: 2.89 ± 0.05 ×10⁻⁶ cm/s
Papp A→B at 1.5 h, 100 μM [4, 8]: 1.96 ± 0.07 ×10⁻⁶ cm/s
Papp A→B at 2 h, 100 μM [4, 7]: 2.25 ± 0.02 ×10⁻⁶ cm/s
Papp A→B at 2 h, 100 μM [4, 8]: 3.01 ± 0.03 ×10⁻⁶ cm/s
Papp A→B at 2.5 h, 100 μM [4, 7]: 2.44 ± 0.01 ×10⁻⁶ cm/s
Papp A→B at 2.5 h, 100 μM [4, 8]: 1.82 ± 0.08 ×10⁻⁶ cm/s
Papp A→B at 3 h, 100 μM [4, 7]: 2.14 ± 0.02 ×10⁻⁶ cm/s
Papp A→B at 3 h, 100 μM [4, 8]: 1.56 ± 0.07 ×10⁻⁶ cm/s
Papp A→B at 100 μM [4, 7]: 2.76 ± 0.07 ×10⁻⁶ cm/s
Papp A→B at 100 μM [4, 8]: 1.83 ± 0.05 ×10⁻⁶ cm/s
Papp A→B at 0.5 h, 50 μM [4, 9]: 1.98 ± 0.06 ×10⁻⁶ cm/s
Papp A→B at 1 h, 50 μM [4, 9]: 1.89 ± 0.09 ×10⁻⁶ cm/s
Papp A→B at 1.5 h, 50 μM [4, 9]: 1.84 ± 0.06 ×10⁻⁶ cm/s
Papp A→B at 2 h, 50 μM [4, 9]: 2.08 ± 0.1 ×10⁻⁶ cm/s
Papp A→B at 2.5 h, 50 μM [4, 9]: 0.95 ± 0.03 ×10⁻⁶ cm/s
Papp A→B at 3 h, 50 μM [4, 9]: 1.37 ± 0.09 ×10⁻⁶ cm/s
Papp A→B at 3 h, 75 μM [4, 10]: 0.69 ± 0.01 ×10⁻⁶ cm/s
Papp A→B at 75 μM [4, 10]: 1.53 ± 0.04 ×10⁻⁶ cm/s
Papp A→B at 0.5 h, 100 μM [4, 11]: 1.26 ± 0.02 ×10⁻⁶ cm/s
Papp A→B at 1 h, 100 μM [4, 11]: 1.7 ± 0.01 ×10⁻⁶ cm/s
Papp A→B at 1.5 h, 100 μM [4, 11]: 2.99 ± 0.03 ×10⁻⁶ cm/s
Papp A→B at 2 h, 100 μM [4, 11]: 1.24 ± 0.02 ×10⁻⁶ cm/s
Papp A→B at 2.5 h, 100 μM [4, 11]: 0.95 ± 0.05 ×10⁻⁶ cm/s
Papp A→B at 3 h, 100 μM [4, 11]: 1.09 ± 0.02 ×10⁻⁶ cm/s
Papp A→B at 100 μM [4, 11]: 1.53 ± 0.07 ×10⁻⁶ cm/s
Papp A→B at 50 μM ([4]; Caco-2, with verapamil 100 μmoL/L, CA 50 μM, + 100 μmoL/L verapamil): 1.5 ± 0.02 ×10⁻⁶ cm/s
Papp A→B at 0.5 h, 75 μM [4, 12]: 1.12 ± 0.01 ×10⁻⁶ cm/s
Papp A→B at 1 h, 75 μM [4, 12]: 1.32 ± 0.01 ×10⁻⁶ cm/s
Papp A→B at 1.5 h, 75 μM [4, 12]: 0.85 ± 0.03 ×10⁻⁶ cm/s
Papp A→B at 2 h, 75 μM [4, 12]: 1.94 ± 0.06 ×10⁻⁶ cm/s
Papp A→B at 2.5 h, 75 μM [4, 12]: 0.87 ± 0.1 ×10⁻⁶ cm/s
